Read-outs that look alike come from different tables or passages of the source.
Key:
PARN = molecular target: T1, PARN (Homo sapiens, UniProt O95453); assay: Fluorescence-based biochemical assay of PARN ribonuclease activity; conditions: for inhibition of PARN ribonuclease activity (in words): Fig. 3, compounds used at 10 μM (5h–k); for IC50: fluorescence-based biochemical assay, ± standard error of the mean (n = 3)
T1 sequence (O95453 1-639): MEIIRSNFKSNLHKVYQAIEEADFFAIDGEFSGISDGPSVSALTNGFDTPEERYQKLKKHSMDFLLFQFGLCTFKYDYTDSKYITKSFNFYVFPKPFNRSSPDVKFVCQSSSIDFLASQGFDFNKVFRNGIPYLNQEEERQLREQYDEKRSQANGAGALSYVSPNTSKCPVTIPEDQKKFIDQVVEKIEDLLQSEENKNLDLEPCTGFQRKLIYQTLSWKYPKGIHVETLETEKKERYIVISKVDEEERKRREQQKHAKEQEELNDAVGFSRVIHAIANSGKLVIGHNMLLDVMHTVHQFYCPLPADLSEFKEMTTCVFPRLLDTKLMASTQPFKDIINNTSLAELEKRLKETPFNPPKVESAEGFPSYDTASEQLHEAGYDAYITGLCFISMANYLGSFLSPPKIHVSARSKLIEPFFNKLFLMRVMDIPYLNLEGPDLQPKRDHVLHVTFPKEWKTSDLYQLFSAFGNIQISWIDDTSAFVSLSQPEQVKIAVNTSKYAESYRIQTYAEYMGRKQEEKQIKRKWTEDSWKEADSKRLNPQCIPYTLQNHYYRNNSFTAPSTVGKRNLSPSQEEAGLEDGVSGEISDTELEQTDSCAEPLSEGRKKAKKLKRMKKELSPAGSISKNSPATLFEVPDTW
Method: The selectivity of the compounds was determined by comparing their activities against Caf1 and two related deadenylase enzymes: the PARN ribonuclease, which has a conserved nuclease domain similar to that of Caf1, and Ccr4, whose biological function is related to Caf1, but which contains a dissimilar EEP-type nuclease domain.[22]
Error bars represent the standard deviation.

Caf1 = Caf1 (Homo sapiens, UniProt Q9UIV1); assay: Fluorescence-based biochemical assay of Caf1 ribonuclease activity
Method: Following LC–MS and solubility analysis, five compounds were evaluated for their ability to inhibit Caf1 activity using a fluorescence-based biochemical assay (Fig. 1B).[22]
Reactions contained no enzyme (control), complete reactions (enzyme) or complete reactions in the presence of the indicated compound. […] Error bars represent the standard deviation.

[1] = read-out: IC50 (Caf1), fluorescence-based biochemical assay, ± standard error of the mean (n = 3)

Caf1, sequence (Q9UIV1 whole entry): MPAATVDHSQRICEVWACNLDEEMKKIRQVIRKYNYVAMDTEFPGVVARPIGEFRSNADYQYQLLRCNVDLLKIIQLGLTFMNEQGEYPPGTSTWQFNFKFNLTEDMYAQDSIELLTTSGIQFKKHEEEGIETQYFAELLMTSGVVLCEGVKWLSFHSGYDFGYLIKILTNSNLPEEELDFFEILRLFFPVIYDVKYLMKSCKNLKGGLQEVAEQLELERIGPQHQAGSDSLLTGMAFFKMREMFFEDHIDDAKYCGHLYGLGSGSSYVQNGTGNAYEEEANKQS

Row | SMILES | IC50 (Caf1; [1]) [µM] | IC50 (PARN) [µM] | further results
1 | O=c1[nH]c2ncn(CCc3ccccn3)c2c(=O)n1O [Compound 5k] | 4 ± 1.1 |  | inhibition of PARN ribonuclease activity (in words) (PARN): also inhibited the related deadenylase PARN
2 | O=c1[nH]c2ncn(Cc3ccccc3)c2c(=O)n1O [Compound 5a] | 10.4 ± 0.4 | 84.1 ± 6.7 | IC50 (Caf1): 22.8 ± 0.1 µM
3 | O=c1c2c(ncn2CCc2ccccc2)n(CCN2CCOCC2)c(=O)n1O [Compound 8k] | 8.7 ± 0.3 |  | 
4 | Cn1c(=O)n(O)c(=O)c2c1ncn2CCc1ccccc1 [Compound 8a] | 9.3 ± 1.7 |  | 
5 | O=c1[nH]c2ncn(CCc3ccccc3)c2c(=O)n1O [Compound 5j] |  |  | inhibition of PARN ribonuclease activity (in words) (PARN): also inhibited the related deadenylase PARN
6 | O=c1[nH]c2cccnc2c(=O)n1O [NSC-193557] | 525 ± 13.9 |  | 
7 | O=c1[nH]c2ncn(Cc3cccnc3)c2c(=O)n1O [Compound 5d] | 6.6 ± 0.7 | 125 ± 32 | 
8 | O=c1[nH]c2ncn(Cc3ccncc3)c2c(=O)n1O [Compound 5e] |  | 245 ± 20 | 
9 | CCCCOCCCn1cnc2[nH]c(=O)n(O)c(=O)c21 [Compound 5g] | 20.6 ± 5.8 |  | 
10 | O=c1c2c(ncn2CCc2ccccc2)n(Cc2ccccc2)c(=O)n1O [Compound 8i] | 14.5 ± 0.9 |  | 
11 | O=c1[nH]c2cnn(-c3ccccc3)c2c(=O)n1O [NSC-104148] | 38.6 ± 2.79 |  | 
12 | O=c1[nH]c2ncn(Cc3ccccn3)c2c(=O)n1O [Compound 5c] | 10.6 ± 2.7 | 119 ± 25 | 
13 | O=c1[nH]c2ncn(CCc3cccs3)c2c(=O)n1O [Compound 5h] | 3.6 ± 1.1 |  | inhibition of PARN ribonuclease activity (in words) (PARN): also inhibited the related deadenylase PARN
14 | O=c1[nH]c2ncn(CCCc3ccccc3)c2c(=O)n1O [Compound 5f] | 13.3 ± 2.3 |  | 
15 | O=c1[nH]c2ncsc2c(=O)n1O [NSC-116567] | 28.7 ± 3.8 |  | 
16 | CN(C)CCCn1c(=O)n(O)c(=O)c2c1ncn2CCc1ccccc1 [Compound 8j] | 0.59 ± 0.11 | 23.9 ± 3.7 | activity versus PARN (in words) (PARN; Table 2, Fig. 3, 3 μM): displayed reduced activity versus PARN; increased activity against Caf1 compared to compound 5a (Caf1): > 10 fold; potency against Caf1 relative to all previously identified compounds (Caf1; compared with the inhibitors of ref 22): > 20 fold

From paper PMC4577731, “Discovery, synthesis and biochemical profiling of purine-2,6-dione derivatives as inhibitors of the human poly(A)-selective ribonuclease Caf1” (Bioorganic & Medicinal Chemistry Letters, 2015)
